Results taken from patent US20260273028A1, “PEROXIDASE COMPOSITIONS CONTAINING IMPROVED ENHANCING AGENTS” (FLEN HEALTH PHARMA NV, priority 2022, published 2026).

Assays:
S. aureus (ATCC®6538™) = experiment: Microbial challenge testing in alginogel with GOX+EPO; assay type: cell-based; details: isoleucine 0.0025% (w/w)
Experimental: In a further experiment, the efficacy of antimicrobial activity enhancement by isoleucine of the GOX combination with eosinophil peroxidase (EPO) was evaluated. In view hereof, a test was set up as described in the section on ‘challenge testing’ described above with the difference that EPO was used instead of LPO.
In brief, microbial challenge testing was performed according to the method described in the European Pharmacopoeia current version chapter 5.1.3 ‘Efficacy of antimicrobial preservation’, but with adapted time points (0, 10, 20, 30, 40, 50, 60, 70 and 80 min instead of 0, 2, 7, 14 and 28 days). […] After preparation, a homogenous sample of 10 g was transferred into a 50 ml conical tube for each alginogel to be evaluated. […] Then, the 50 ml conical tubes containing the alginogel samples to be evaluated were inoculated with 100 μl of the designated inoculum and incubated at 25° C. for 80 minutes. At the start (time point 0) and after 0, 10, 20, 30, 40, 50, 60, 70 and 80 min, the number of viable microorganisms per gram product (expressed as CFU/g) was determined by transferring a sample of 0.5 g of the product into a 15 ml conical tube containing 4.5 ml of sterile diluent and applying general dilution and plate count techniques. For each combination evaluated, the absolute counts (expressed as log(CFU/g)) at each timepoint were visualized in a graph. […]

IL-6 [1] = experiment: IL-6 secretion by THP-1-derived macrophages, ELISA; assay type: cell-based; details: 24 h
Experimental: First, the effect on the secretion of these mediators by macrophages was evaluated. Secondly, the direct neutralization of already secreted mediators was evaluated. Both were measured by the state-of-the-art ELISA technique. First, the secretion of the pro-inflammatory mediator representatives IL-6, TNFa and MMP9 in cell culture supernatants by THP-1 (a monocytic cell line) after its differentiation into macrophages were measured. In brief, THP-1 cells were seeded at a density of 3×10^5 cells/cm^2 in a 6-well plate in the presence of 160 nM of phorbol-12-myristate-13-acetate (PMA) to induce macrophage differentiation. Differentiation was further conducted for 48 h. […] Supernatants were collected and centrifuged at 150 g for 5 min to remove cell debris and were kept at −20° C. before being processed for ELISA. IL-6, TNFa and MMP9 ELISA kits were purchased from BioTechne and the experiment was performed according to manufacturer's instructions. Briefly, 96-well plates were coated with capture antibodies overnight at room temperature. […] After several washing steps, the corresponding detection antibody, which is coupled to biotin, was incubated for 2 h. […] The reaction was stopped by the addition of sulphuric acid and absorbance at 450 nm was read with a plate reader. Absorbance is proportional to the concentration of analyte present in the medium, which was calculated based on a standard curve realized with recombinant IL-6, TNFa and MMP9.

MMP9 = MMP9 secretion by THP-1-derived macrophages, ELISA; assay type: cell-based; details: 24 h
Experimental: First, the effect on the secretion of these mediators by macrophages was evaluated. Secondly, the direct neutralization of already secreted mediators was evaluated. Both were measured by the state-of-the-art ELISA technique. First, the secretion of the pro-inflammatory mediator representatives IL-6, TNFa and MMP9 in cell culture supernatants by THP-1 (a monocytic cell line) after its differentiation into macrophages were measured. In brief, THP-1 cells were seeded at a density of 3×10^5 cells/cm^2 in a 6-well plate in the presence of 160 nM of phorbol-12-myristate-13-acetate (PMA) to induce macrophage differentiation. Differentiation was further conducted for 48 h. […] Supernatants were collected and centrifuged at 150 g for 5 min to remove cell debris and were kept at −20° C. before being processed for ELISA. IL-6, TNFa and MMP9 ELISA kits were purchased from BioTechne and the experiment was performed according to manufacturer's instructions. Briefly, 96-well plates were coated with capture antibodies overnight at room temperature. […] The reaction was stopped by the addition of sulphuric acid and absorbance at 450 nm was read with a plate reader. Absorbance is proportional to the concentration of analyte present in the medium, which was calculated based on a standard curve realized with recombinant IL-6, TNFa and MMP9.

IL-6 [2] = experiment: Direct neutralization of secreted IL-6 in cell culture supernatants, ELISA; assay type: biochemical; details: isoleucine 0.05%; 3 h
Experimental: First, the effect on the secretion of these mediators by macrophages was evaluated. Secondly, the direct neutralization of already secreted mediators was evaluated. Both were measured by the state-of-the-art ELISA technique. Secondly, the direct neutralization of secreted pro-inflammatory mediator representatives IL-6, TNFa and MMP9 was measured in parallel. In brief, cell culture supernatants were collected after 48 h of macrophage differentiation and were centrifuged at 150 g for 5 min to remove cell debris. […] Treated supernatants were kept frozen until being processed for ELISA. IL-6, TNFa and MMP9 ELISA kits were purchased from BioTechne and the experiment was performed according to manufacturer's instructions. Briefly, 96-well plates were coated with capture antibodies overnight at room temperature. […] After several washing steps, the corresponding detection antibody, which is coupled to biotin, was incubated for 2 h. […] The reaction was stopped by the addition of sulphuric acid and absorbance at 450 nm was read with a plate reader. Absorbance is proportional to the concentration of analyte present in the medium, which was calculated based on a standard curve realized with recombinant IL-6, TNFa and MMP9.

GOX = GOX (Aspergillus niger, UniProt P13006); experiment: Glucose oxidase (GOX) activity, spectrophotometric assay; assay type: biochemical; details: reference = no potentiator candidate
GOX, sequence (P13006 17-605): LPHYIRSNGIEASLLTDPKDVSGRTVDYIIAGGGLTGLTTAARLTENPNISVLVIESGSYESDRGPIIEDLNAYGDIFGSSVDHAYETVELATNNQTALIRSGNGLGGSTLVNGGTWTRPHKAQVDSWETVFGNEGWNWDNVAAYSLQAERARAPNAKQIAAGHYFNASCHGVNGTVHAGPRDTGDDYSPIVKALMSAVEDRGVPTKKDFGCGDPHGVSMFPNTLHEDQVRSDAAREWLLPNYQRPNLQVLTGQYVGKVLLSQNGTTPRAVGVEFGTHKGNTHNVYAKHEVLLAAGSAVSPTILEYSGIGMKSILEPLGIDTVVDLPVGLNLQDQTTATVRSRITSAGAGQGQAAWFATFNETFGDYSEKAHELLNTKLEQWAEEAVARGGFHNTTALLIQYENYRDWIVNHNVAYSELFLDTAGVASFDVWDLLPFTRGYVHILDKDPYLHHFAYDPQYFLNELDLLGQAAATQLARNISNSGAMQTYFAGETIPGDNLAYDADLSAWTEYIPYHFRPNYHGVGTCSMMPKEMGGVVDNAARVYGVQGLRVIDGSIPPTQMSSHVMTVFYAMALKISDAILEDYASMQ
Experimental: The natural enzyme GOX is an oxidoreductase that catalyses the oxidation of glucose to gluconic acid and hydrogen peroxide (H2O2) in the presence of water and air. To measure the enzymatic activity of GOX, a standard spectrophotometric assay is performed. In brief, a second oxidoreductase enzyme, peroxidase, and a chromogenic oxygen acceptor, o-dianisidine, are added to the former reaction mix (GOX+glucose+water+air) so that the formation of a coloured compound is achieved that can in turn be measured by spectrophotometry. GOX was tested in 4 different concentrations, i.e., 100, 50, 10 and 1 mg/ml. Each reaction mixture was tested in duplo. In the event GOX activity was evaluated in the presence of a potentiator candidate (=a molecule that might be able to augment the enzymatic activity of GOX), the latter was added in a low and high concentration ranging from 100 to 0.1 mg/ml. The blank consisted of the reaction mix in which the enzymes were absent. After mixing all reaction elements, absorbance was immediately measured with a plate reader (Spectramax ID3, Molecular Devices) every minute for 5 minutes at 35° C. For each combination evaluated, this test was repeated at least 2 times. Results were further analysed in MS Excel and expressed as U/g. Mean blank-corrected data±SD were plotted. Statistical significance compared to the combination without potentiator candidate (reference) was calculated using students' t-tests. Significance is achieved when the obtained p-value is lower than 0,05. Significance levels were defined as p<0.05=*; p<0.01=** and p<0.001=***.

## CC[C@H](C)[C@H](N)C(=O)O [Isoleucine, isoleucine]
S. aureus (ATCC®6538™)
  time to complete reduction of absolute S. aureus counts: 80 min
IL-6 [1]; isoleucine 0.0025%
  additional decrease in IL-6 secretion by macrophages vs GOX+LPO (1:1) alone: 7.6%
IL-6 [1]; isoleucine 0.05%
  additional decrease in IL-6 secretion by macrophages vs GOX+LPO (1:1) alone: 20.6%
IL-6 [1]; isoleucine 0.5%
  additional decrease in IL-6 secretion by macrophages vs GOX+LPO (1:1) alone: 33.6%
MMP9; isoleucine 0.0025%
  additional decrease in MMP9 secretion by macrophages vs GOX+LPO (1:1) alone: 12.7%
MMP9; isoleucine 0.05%
  additional decrease in MMP9 secretion by macrophages vs GOX+LPO (1:1) alone: 21.5%
IL-6 [2]
  additional decrease of already secreted IL-6 (direct neutralization) vs GOX+LPO (1:1) alone: 29.4%

## O=C(O)[C@@H]1CCCN1 [Proline, proline]
GOX; enhancer 0.1 mg/ml
  GOX activity compared to reference: significant increase
GOX; enhancer 100 mg/ml
  GOX activity compared to reference: significant increase
